This data set concerns the target hERG1a/1b current (Homo sapiens, UniProt Q12809). As to the method: All working solutions were sterile-filtered, stored at −20 °C and thawed to room temperature before use.
Prior to electrophysiology study, the HEK293-hERG1a/1b cells were first grown in complete medium without selection antibiotics for 6 days. Approximately 5.0 × 10^5 cells were then plated onto an uncoated 96-mm cell culture dish for a maximum of 3 days. […] The cell suspension was then transferred into a 15-ml polypropylene tube and centrifuged at 100 × g for 3 min. Subsequently, the cell pellet was resuspended in extracellular solution to obtain a final density of 2 × 10^6–3 × 10^6 cells/ml and incubated on ice for 20 min to allow cell recovery. The electrophysiology studies were performed using NPC®-1 chips (Nanion Technologies, Germany) and Port-a-Patch system (Nanion Technologies, Germany) following manufacturer’s instructions, within the next 2 h. For characterization and determination of the hERG1a/1b current inhibition, a series of voltage protocols were applied as published previously.
The hERG1a/1b current was recorded in cells achieving whole-cell configuration. Briefly, a single cell was first held at −80 mV, the theoretical cardiac resting membrane potential, on the aperture of the NPC-1 chip (Nanion Technologies, Germany). To characterize the I-V relationship, the cell was depolarized to test potentials ranging from −60 mV to +50 mV for 4 s in […], followed by a 5-s step to −50 mV before returning to −80mV.
To determine the pharmacological effects of the HEK293-hERG1a/1b cells, the cells were perfused with test compound solutions using an external perfusion system. […] The mean of six successive Itail was recorded for each test concentration. Four independent experiments were conducted to derive the dose-response curve.

Regarding `CNCCC(Oc1ccc(C(F)(F)F)cc1)c1ccccc1` (stereo not shown) [fluoxetine, reference compound], the “Hill coefficient (h)” value is 1.19.

The values above are taken from article PMC6930223 (Scientific Reports, 2019).
